Results taken from patent publication US20230389542A1, “USE OF [(1,5-DIPHENYL-1H-PYRAZOL-3-YL)OXY] ACETIC ACID DERIVATIVES AND THEIR SALTS AND COMPOSITIONS CONTAINING THEM, FOR REDUCING PHYTOTOXIC EFFECTS OF AGROCHEMICALS, IN PARTICULAR OF HERBICIDES, IN USEFUL PLANTS AND CROP PLANTS” (BAYER AKTIENGESELLSCHAFT, priority 2020, published 2023).
“And” between values parts separate entries of the source, which are not always exact repeats. Equal values may be shown once.

Tests used:
Type in all cases: in vivo
[1] = system: summer wheat (TRZAS; cv. Triso); test: Absolute action: reduction of damage by mesosulfuron-methyl on summer wheat, greenhouse post-emergence; set-up: key to Absolute reduction in damage (difference): percentage points of visual damage (0-100% scale vs untreated)
Method: (§1) 2.1 Absolute Action of Selected Compounds of the Invention Using the Example of Reduction of Damage by Mesosulfuron-Methyl on Summer Wheat (TRZAS) The seeds of the crop plants to be treated are laid out in sandy loam in wood fiber or plastic pots (diameter ˜4 cm), covered with soil and grown in a greenhouse under good conditions for germination and growth. The trial plants were treated at the early leaf stage (BBCH10-BBCH12). In the course of this, the inventive compounds of the general formula (D formulated in the form of wettable powders (WP) were sprayed onto the above-ground parts of the plants as an aqueous suspension with a water application rate corresponding to 800 l/ha with addition of wetting agent (e.g. 0.2% agrotin) in the specified dose. This was followed by the application of the herbicide. For this purpose, mesosulfuron-methyl, formulated in the form of water-dispersible granules (WG), was sprayed onto the above-ground parts of the plants in the form of an aqueous dispersion with a water application rate corresponding to 800 l/ha with addition of wetting agent (e.g. 0.2% agrotin) in a dose of 20 g/ha. The dose of the herbicide was chosen here such that it causes visually apparent damage (min. 30%, max. 75%) compared to untreated crop plants at the evaluation time on a control group of crop plants without safener treatment that were included in the same trial. After application, the plants were cultivated under good growth conditions in a greenhouse. The damage was visually assessed 14-21 days after application. The damage effect was assessed visually on a scale of 0-100% by comparison with untreated control plants, and averaged over 2-3 repeats per treatment. Examples: • 0%=no noticeable effect compared to the untreated plant • 20%=the treated plant population has 20% damage compared to the untreated control population (e.g. growth height, leaf damage, etc.) • 100%=treated plants completely damaged/killed.

[2] = system: summer barley (HORVS; cv. Montoya); test: Absolute action: reduction of damage by mesosulfuron-methyl on summer barley, greenhouse post-emergence; set-up: key to Absolute reduction in damage (difference): difference in % damage (0-100% visual scale vs untreated control)
Method: as §1, with “2.2” for “2.1”, “Barley (HORVS)” for “Wheat (TRZAS)”, “(I)” for “(D”

[3] = system: summer wheat (TRZAS; cv. Triso); test: Relative action (efficacy code): reduction of damage by mesosulfuron-methyl on summer wheat; set-up: key: 0: no reduction in damage (appearance corresponding to the herbicide control); 1: slight reduction in damage; 2: distinct reduction in damage; 3: significant reduction in damage; 4: complete reduction in damage (appearance corresponding to the untreated control); details: visual, 9-13 days after application
Method: 2.3 Relative Action of Selected Compounds of the Invention Using the Example of Reduction of Damage by Mesosulfuron-Methyl on Summer Wheat (TRZAS) The seeds of the crop plants to be treated are laid out in sandy loam in plastic pots (diameter μ4 cm), covered with soil and grown in a greenhouse under good conditions for germination and growth. The trial plants were treated at the early leaf stage (BBCH10-BBCH12). In the course of this, the inventive compounds of the general formula (I) formulated in the form of wettable powders (WP) were sprayed onto the above-ground parts of the plants as an aqueous suspension with a water application rate corresponding to 800 l/ha with addition of wetting agent (e.g. 0.2% Genapol-LRO or 0.2% Mero) in the specified dose. This was followed by the application of the herbicide. For this purpose, mesosulfuron-methyl, formulated in the form of water-dispersible granules (WG), was sprayed onto the above-ground parts of the plants in the form of an aqueous dispersion with a water application rate corresponding to 800 l/ha with addition of wetting agent (e.g. 0.2% Genapol-LRO or 1 l/ha Biopower) in a dose of 40-60 g/ha. The dose of the herbicide was chosen here such that it causes visually apparent damage (min. 30%, max. 75%) compared to untreated crop plants at the evaluation time on a control group of crop plants without safener treatment that were included in the same trial. After application, the plants were cultivated under good growth conditions in a greenhouse. 9-13 days after application, the efficacy of the test compounds was assessed visually. For this purpose, the appearance of the plants treated with the test compound and herbicide was compared to the corresponding herbicide controls (without safener; with clearly visible damage) and the untreated controls (without damage). The damage-reducing effect of the test compounds was expressed here in graded efficacy codes according to the following scheme: • 0: no reduction in damage (appearance corresponding to the herbicide control) • 1: slight reduction in damage • 2: distinct reduction in damage • 3: significant reduction in damage • 4: complete reduction in damage (appearance corresponding to the untreated control) The trials show clear efficacy of the inventive compounds selected by way of example with regard to the reduction in damage to the summer wheat crop plant (TRZAS; cv. Triso) caused by the herbicide mesosulfuron-methyl: […]

[4] = safener 125 g/ha + mesosulfuron-methyl 20 g/ha
[5] = safener 125 g/ha + mesosulfuron-methyl 20 g/ha, visual, 14-21 days after application
[6] = safener 500 g/ha + mesosulfuron-methyl 20 g/ha
[7] = safener 500 g/ha + mesosulfuron-methyl 20 g/ha, visual, 14-21 days after application
[8] = safener 100 g/ha + mesosulfuron-methyl 40-60 g/ha
[9] = safener 500 g/ha + mesosulfuron-methyl 40-60 g/ha
[10] = mesosulfuron-methyl 20 g/ha alone (no safener), visual, 14-21 days after application, scale 0-100%

Row | SMILES | Absolute reduction in damage (difference) [1, 4] | Herbicide damage with compound of the formula (I) [1, 5] | Absolute reduction in damage (difference) [1, 6] | Herbicide damage with compound of the formula (I) [1, 7] | other results
1 | O=C(O)COc1cc(-c2ccccc2)n(-c2ccc(Cl)cc2)n1 [I.3-7] | 26 | 37% | – | – | –
2 | COc1ccccc1-n1nc(OCC(=O)O)cc1-c1ccccc1 [I.3-20] | – | – | 36 | 17% | –
3 | CCOC(=O)COc1cc(-c2ccc(F)cc2)n(-c2ccccc2OC)n1 [I.11-20] | 46 | 7% | 46 | 7% | –
4 | CCOC(=O)COc1cc(-c2ccc(F)cc2)n(-c2ccc(F)cc2F)n1 [I.11-38] | 43 | 10% | 43 | 10% | Absolute reduction in damage (difference) [2, 4]: 23; Herbicide damage with compound of the formula (I) [2, 5]: 37%; Absolute reduction in damage (difference) [2, 6]: 33; Herbicide damage with compound of the formula (I) [2, 7]: 27%
5 | O=C(O)COc1cc(-c2ccc(F)cc2)n(-c2ccc(F)cc2)n1 [I.12-4] | – | – | 46 | 7% | Absolute reduction in damage (difference) [2, 6]: 27; Herbicide damage with compound of the formula (I) [2, 7]: 33%
6 | CCOC(=O)COc1cc(-c2ccc(Cl)cc2)n(-c2ccc(Cl)cc2F)n1 [I.20-49] | – | – | – | – | Efficacy of the safener (efficacy code) [3, 8]: 3; Efficacy of the safener (efficacy code) [3, 9]: 3
7 | COc1ccccc1-n1nc(OCC(=O)O)cc1-c1ccc(Cl)cc1 [I.21-20] | 30 | 23% | 36 | 17% | –
8 | O=C(O)COc1cc(-c2ccc(Cl)cc2)n(-c2ccc(F)cc2F)n1 [I.21-38] | 46 | 7% | 50 | 3% | Absolute reduction in damage (difference) [2, 4]: 33; Herbicide damage with compound of the formula (I) [2, 5]: 27%; Absolute reduction in damage (difference) [2, 6]: 33; Herbicide damage with compound of the formula (I) [2, 7]: 27%
9 | CCOC(=O)COc1cc(-c2ccc(F)cc2F)n(-c2ccccc2)n1 [I.41-1] | 53 | 0% | – | – | –
10 | CCOC(=O)COc1cc(-c2ccc(F)cc2F)n(-c2ccc(F)cc2)n1 [I.41-4] | 40 | 13% | – | – | Absolute reduction in damage (difference) [2, 4]: 23; Herbicide damage with compound of the formula (I) [2, 5]: 37%
11 | CCOC(=O)COc1cc(-c2ccc(F)cc2F)n(-c2ccccc2OC)n1 [I.41-20] | 36 | 17% | 43 | 10% | –
12 | CCOC(=O)COc1cc(-c2ccc(F)cc2F)n(-c2ccc(F)cc2F)n1 [I.41-38] | – | – | 40 | 13% | Absolute reduction in damage (difference) [2, 6]: 33; Herbicide damage with compound of the formula (I) [2, 7]: 27%
13 | COc1ccccc1-n1nc(OCC(=O)O)cc1-c1ccc(F)cc1F [I.42-20] | 40 | 13% | – | – | –
14 | O=C(O)COc1cc(-c2ccc(F)cc2F)n(-c2ccc(F)cc2F)n1 [I.42-38] | 33 | 20% | – | – | Absolute reduction in damage (difference) [2, 4]: 23; Herbicide damage with compound of the formula (I) [2, 5]: 37%
15 | CCOC(=O)COc1cc(-c2ccc(Cl)cc2F)n(-c2ccc(Cl)cc2)n1 [I.47-7] | – | – | – | – | Efficacy of the safener (efficacy code) [3, 8]: 2; Efficacy of the safener (efficacy code) [3, 9]: 2
16 | O=C(O)COc1cc(-c2ccc(Cl)cc2F)n(-c2ccc(F)cc2F)n1 [I.48-38] | – | – | – | – | Efficacy of the safener (efficacy code) [3, 8]: 2; Efficacy of the safener (efficacy code) [3, 9]: 2
17 | COC(=O)c1ccc(CNS(C)(=O)=O)cc1S(=O)(=O)NC(=O)Nc1nc(OC)cc(OC)n1 [mesosulfuron-methyl, reference compound] | – | – | – | – | Herbicide damage without compound of the formula (I) [1, 10]: 53% and 63%; Herbicide damage without compound of the formula (I) [2, 10]: 60%
